Measured values reported in article PMC8997399, “High-Throughput Screening to Identify Inhibitors of Plasmodium falciparum Importin α” (Cells, 2022).
Like-named read-outs stand apart in the source and are kept apart here. One block for each molecule: values may come before it.

What was measured:
PfIMPα = PfIMPα (Plasmodium falciparum, UniProt Q8IAW0); experiment: biochemical; assay type: binding; conditions: for inhibition at 10 µM: read-out: % Inhibition of IMPα-NLS Interaction PfIMPα
Description: (§1) PfIMPα, TgIMPα, Mus musculus IMPα (MmIMPα), ΔIBBMmIMPα, and β1 (MmIMPβ) GST fusion proteins were expressed and purified essentially as previously. His-tagged TGS1-NLS-GFP, PfIMPα and TgIMPα proteins were purified using Ni^2+-affinity chromatography as described. His-tagged SV40 T-ag-NLS-GFP was purified as previously. Biotinylation of GST-tagged proteins was carried out using the Sulfo-NHS-Biotin reagent (Pierce, Rockford, IL, USA) as described previously. AlphaScreen binding assay was performed as described previously.
Then, 10 nM biotinylated PfIMPα and 60 nM TGS1-NLS-GFP were used with library compounds, screened at 10 µM final concentration.
Briefly, 5 μL of each compound in DMSO was added to quadruplicate wells of a 384-well plate along with appropriate controls including DMSO alone and ivermectin, as previously, using a JANUS Modular Dispense Technology (MDT) robotic system (PerkinElmer, Waltham, MA, USA). This was followed by successive 7 and 5 μL additions, respectively, of PfIMPα (10 nM) and TGS1-NLS-GFP (60 nM) or PBS (“no bait” control), respectively, and 30 min incubation at room temperature. […] Then, 4 µL of the AlphaScreen donor beads (1/40 dilution of GSH. acceptor beads in PBS) was finally added to each well using a Multidrop, followed by a further incubation of 2 h at room temperature in the dark.
(§2) Plates were read for an Alphascreen signal on an Envision plate reader (PerkinElmer, Waltham, MA, USA), with signals from the negative control wells (no bait control) on each plate subtracted.

TgIMPα = TgIMPα (Toxoplasma gondii, UniProt A0A125YID0); experiment: biochemical; assay type: binding; conditions: for inhibition at 10 µM: read-out: % Inhibition of IMPα-NLS Interaction TgIMPα
Description: as §1, §2

MmΔIBBIMPα = target: T1, MmΔIBBIMPα (Mus musculus, UniProt P52293); experiment: AlphaScreen binding assay, MmΔIBBIMPα:T-ag-NLS-GFP interaction; conditions: for inhibition at 10 µM: read-out: % Inhibition of IMPα-NLS Interaction MmΔIBBIMPα
T1 construct: made in house
Description: as §1, §2

MmIMPα/β heterodimer = target: T2, MmIMPα/β heterodimer (Mus musculus, UniProt P52293); experiment: AlphaScreen binding assay, MmIMPα/β:T-ag-NLS-GFP interaction; conditions: for inhibition at 10 µM: read-out: % Inhibition of IMPα-NLS Interaction MmIMPα/β
T2 construct: GST; made in house
Description: as §1, §2

[1] = target: His-tagged SV40 T-ag-NLS-GFP (NLS of simian virus SV40 large tumor antigen fused to GFP) (Simian Virus 40); experiment: AlphaScreen or HTRF
P. falciparum 3D7 strain = experiment: P. falciparum growth inhibition assay (HRP2 sandwich ELISA); assay type: cell-based, Plasmodium falciparum; conditions: Plasmodium falciparum, 3D7, 72 h
Description: Red blood cells (RBCs) were derived from blood from volunteers (approval from the Institute Ethics Committee, IIT Bombay, Mumbai, India) by density gradient centrifugation. Aliquots of cryopreserved P. falciparum 3D7 strain in human red blood cells (RBCs—3% hematocrit, <5% parasitemia) were thawed and cultured using RPMI (Roswell Park Memorial Institute) 1640 medium supplemented with 0.5% Albumax (Gibco^TM, Waltham, MA, USA), 50 mg/L hypoxanthine (Sigma-Aldrich, St Louis, MO, USA), 2 g/L D-glucose (Sigma-Aldrich, St Louis, MO, USA), 2 g/L sodium bicarbonate (Sigma-Aldrich, St Louis, MO, USA), and 56 mg/L of gentamicin (Abbott, Chicago, IL, USA) at 37 °C in 5% CO2 in a humidified incubator according to the standard procedures; suspension cultures were maintained at 3% hematocrit and <5% parasitemia, by adding a fresh medium daily and a regular addition of fresh human RBCs.
Before growth inhibition assays, cultures were synchronized using 5% D-sorbitol (Sigma-Aldrich, St Louis, MO, USA) predominantly to obtain the ring stage of the P. falciparum life cycle.
Growth assays in the absence and presence of inhibitors were performed using the Histidine–Rich Protein 2 (HRP2) sandwich horseradish peroxidase-linked immunosorbent assay to measure HRP2 protein levels as an indicator of growth. Briefly, 25 µL of compound was added to 96-well microculture plates (Eppendorf, Hamburg, Germany) of 0.25% (with fresh RBCs), and added at a hematocrit of 3%. The plates were then incubated for 72 h at 37 °C in a humidified incubator, sparged with 5% CO2. 72 h later, the plates were subjected to freeze–thaw to achieve hemolysis, and samples diluted 200-fold in H2O in transferring to another plate. A day prior to analysis, 96-well ELISA plates (Sigma-Aldrich, St Louis, MO, USA) were coated overnight at 4 °C with 100 µL of 1 μg/mL IgM capture antibody MPFM-55A (Immunology Consultants Laboratory, Portland, OR, USA) specific for P. falciparum HRP2. After blocking for 2 h at room temperature with 2% BSA in PBS, diluted samples were added to the wells, followed by incubation for 2 h, then the plates were washed three times with 0.05% Tween 20 in PBS. Next, 100 µL of the secondary antibody MPFG-55P (Immunology Consultants Laboratory, Portland, OR, USA) conjugated with horseradish peroxidase (0.25 μg/mL in PBS with 2% BSA) was then added to each well, and the plates incubated for 1 h at room temperature, prior to being washed three times, and 100 µL 3,3′, 5,5′ tetramethylbenzidine substrate (BD Biosciences, San Jose, CA, USA) being added. After 10 min incubation in the dark, 50 µL of 1 M H2SO4 was added and the absorbance was read at 450 nm on a Multiscan™ FC Microplate Spectrophotometer (Thermo Fisher Scientific, Waltham, MA, USA).

T. gondii tachyzoites = conditions: cited from earlier work
[2] = test system: T. gondii RH strain expressing the luciferase reporter (RH-Fluc); experiment: T. gondii tachyzoite growth inhibition assay (RH-Fluc luciferase); assay type: cell-based, Toxoplasma gondii; conditions: Toxoplasma gondii
Source text: T. gondii RH strain expressing the luciferase reporter (RH-Fluc) was derived to assess the effect of the inhibitors on growth. Briefly, plasmid pCTG-EGFP [42] was modified by replacing the coding sequence of EGFP with that of the firefly luciferase reporter, using restriction enzymes BglII and PstI (Thermo Fisher Scientific, Waltham, MA, USA). The resultant plasmid, pCTG-Fluc, expressing firefly luciferase constitutively under the control of the T. gondii TubulinA promoter, was electroporated into the T. gondii RH strain [43, 44] using a Bio-Rad GenePulser Xcell system (1500 V, 50 Ω and 25 µF) along with restriction enzyme NotI to initiate RE-Mediated Integration (REMI) of the linearized plasmid into the genome. The resultant stable T. gondii line expressing the luciferase reporter was selected for resistance to 20 µM chloramphenicol (encoded by the plasmid pCTG), and dilution cloning was performed to ultimately identify the clone (RH-Fluc) with the highest luciferase activity (c. 4 × 10^7 RLU from 10^7 parasites) used for growth assays. T. gondii tachyzoites were maintained and cultured at 37 °C in 5% CO2 in a humidified incubator in primary human foreskin fibroblasts (HFF, ATCC); HFF cells were maintained in Dulbecco’s modified Eagle medium (DMEM) (Gibco^TM, Waltham, MA, USA) supplemented with 3.7 g/L sodium bicarbonate and 2.38 g/L HEPES, 10% Cosmic Calf serum (Hyclone^TM, Logan, UT, USA) and 20 mg/L gentamicin [47, 48].
Growth inhibition was assessed by luminescence measurements as described. Briefly, 100 μL of culture medium with or without inhibitors was added to confluent monolayers of HFF cells grown in 96-well treated culture plates (Eppendorf, Hamburg, Germany), followed by 100 µL of DMEM containing 5000 parasites. After 48 h, 150 µL of the culture media was discarded from each well without aspirating any parasites, and 10 µL lysis buffer was added to lyse the parasites, followed by 50 μL of 2× luciferase assay reagent (Promega, Madison, WI, USA). Luminescence was measured directly for 10 s using a Varioskan™ LUX multimode microplate reader (Thermo Fisher Scientific, Waltham, MA, USA).

[3] = MTT assay for host cell cytotoxicity; assay type: cell-based, human; conditions: human, HFF cells; MTT assay, 48 h; mean ± SD (n = 2)
Description: The MTT assay was used to measure the cytotoxicity of the small molecules against the HFF cells as described. Briefly, freshly confluent HFF cells in a 96-well culture plate were treated with increasing concentrations of compounds for 48 h, prior to the MTT assay.

[4] = target: His-tagged TGS1-NLS-GFP (NLS of P. falciparum trimethyl guanosine synthase 1 fused to GFP) (Plasmodium falciparum); experiment: AlphaScreen or HTRF; Kd determination without inhibitors; His-tagged NLS-GFP (30 nM) and biotinylated-GST-IMPα (5 nM) as printed; pooled from three independent experiments
[5] = compounds at 10 μM, PfIMPα (10 nM):TGS1-NLS-GFP (60 nM), relative to 1% DMSO control, quadruplicate
[6] = compounds at 10 μM, TgIMPα (5 nM):T-ag-NLS-GFP (30 nM), relative to 1% DMSO control
[7] = compounds at 10 μM, ΔIBBMmIMPα (5 nM):T-ag-NLS-GFP (30 nM), relative to 1% DMSO control
[8] = compounds at 10 μM, MmIMPα/β (5 nM):T-ag-NLS-GFP (30 nM), relative to 1% DMSO control

Molecule: COc1ccc2c(c[n+](C)c3c4cc5c(cc4ccc23)OCO5)c1OC.[Cl-] [Chelerythrine Cl]
% Inhibition of IMPα-NLS Interaction PfIMPα (PfIMPα; [5]): 81%
% Inhibition of IMPα-NLS Interaction TgIMPα (TgIMPα; [6]): 67%
% Inhibition of IMPα-NLS Interaction MmΔIBBIMPα (MmΔIBBIMPα; [7]): 88%
% Inhibition of IMPα-NLS Interaction MmIMPα/β (MmIMPα/β heterodimer; [8]): 94%

Molecule: O=C(Nc1ccc(N2CCNCC2)nc1)c1oc(-c2ccccc2)nc1C(F)(F)F [MMV024937]
% Inhibition of IMPα-NLS Interaction PfIMPα (PfIMPα; [5]): 73%
% Inhibition of IMPα-NLS Interaction TgIMPα (TgIMPα; [6]): 26%
% Inhibition of IMPα-NLS Interaction MmΔIBBIMPα (MmΔIBBIMPα; [7]): 70%
% Inhibition of IMPα-NLS Interaction MmIMPα/β (MmIMPα/β heterodimer; [8]): 24%

Molecule: O=C(Nc1nc(-c2ccccn2)cs1)c1cncn1-c1ccccc1 [MMV676512]
% Inhibition of IMPα-NLS Interaction TgIMPα (TgIMPα; [6]): 48%
% Inhibition of IMPα-NLS Interaction MmΔIBBIMPα (MmΔIBBIMPα; [7]): 54%

Molecule: Mus musculus importin α deleted for the autoinhibitory IBB domain (MmΔIBBIMPα), biotinylated GST fusion protein (domain or fragment)
Kd [1]: 2.6 nM

Molecule: CNC[C@H](O)c1ccc(O)c(O)c1.Cl (racemic) [(±)-Epinephrine HCl]
% Inhibition of IMPα-NLS Interaction MmΔIBBIMPα (MmΔIBBIMPα): 35%
% Inhibition of IMPα-NLS Interaction MmΔIBBIMPα (MmΔIBBIMPα; listed as (±)-epinephrine HCl): < 55%
% Inhibition of IMPα-NLS Interaction MmIMPα/β (MmIMPα/β heterodimer): 95%
% Inhibition of IMPα-NLS Interaction MmIMPα/β (MmIMPα/β heterodimer; listed as (±)-epinephrine HCl): ≥ 95%

IC50 (P. falciparum 3D7 strain; parasites in culture, pooled, mean ± SD (n = 3)): 1 nM
IC50 (P. falciparum 3D7 strain; single typical experiment (Figure 6)): 0.7 nM
Molecule: C[C@H]1[C@@H](O)O[C@@H]2O[C@@]3(C)CC[C@H]4[C@H](C)CC[C@@H]1[C@@]24OO3 [DHA, dihydroartemisinin]

Molecule: O=c1ccc2ccc(O)c(O)c2o1 [Daphnetin]
inhibition at 10 µM (PfIMPα; [5]): 81%
inhibition at 10 µM (TgIMPα; [6]): 70%
inhibition at 10 µM (MmΔIBBIMPα; [7]): 81%
inhibition at 10 µM (MmIMPα/β heterodimer; [8]): 83%

Molecule: CNC[C@H](O)c1ccc(O)c(O)c1 [(−)-Epinephrine bitartrate]
inhibition at 10 µM (PfIMPα): 85%
inhibition at 10 µM (TgIMPα): 23%
inhibition at 10 µM (MmΔIBBIMPα; [7]): 34%
inhibition at 10 µM (MmIMPα/β heterodimer; [8]): 94%

Molecule: Cc1ccc(S(=O)(=O)/C=C/C#N)cc1 [Bay 11-7082]
inhibition of growth of T. gondii tachyzoites (T. gondii tachyzoites): inhibit the growth

Molecule: CC[n+]1c(/C=C/C=C2/N(C)c3ccccc3C2(C)C)sc2ccccc21.[I-] [AC-93253 iodide]
% Inhibition of IMPα-NLS Interaction PfIMPα (PfIMPα; [5]): 82%
% Inhibition of IMPα-NLS Interaction TgIMPα (TgIMPα; [6]): 72%
% Inhibition of IMPα-NLS Interaction MmΔIBBIMPα (MmΔIBBIMPα; [7]): 67%
% Inhibition of IMPα-NLS Interaction MmIMPα/β (MmIMPα/β heterodimer; [8]): 62%

Molecule: Cl.NCC(O)c1cc(O)c(O)cc1F (stereo not drawn) [6-Fluoronorepinephrine HCl]
% Inhibition of IMPα-NLS Interaction PfIMPα (PfIMPα; [5]): 77%
% Inhibition of IMPα-NLS Interaction TgIMPα (TgIMPα; [6]): 67%
% Inhibition of IMPα-NLS Interaction MmΔIBBIMPα (MmΔIBBIMPα; [7]): 60%
% Inhibition of IMPα-NLS Interaction MmIMPα/β (MmIMPα/β heterodimer; [8]): 51%

Molecule: CC(C)(CN)c1nc(-c2ccc(Cl)c(O)c2)c(-c2ccnc(N)n2)[nH]1 [MMV030734]
% Inhibition of IMPα-NLS Interaction TgIMPα (TgIMPα; [6]): 44%
% Inhibition of IMPα-NLS Interaction MmΔIBBIMPα (MmΔIBBIMPα; [7]): 43%
% Inhibition of IMPα-NLS Interaction MmIMPα/β (MmIMPα/β heterodimer; [8]): 68%

Molecule: CCc1nc(N)nc(N)c1-c1ccc(Cl)cc1 [pyrimethamine]
IC50 ([2]; Table S1, mean ± SEM (n = 3), read-out: IC50 T. gondii tachyzoites): 500 ± 100 nM
IC50 ([2]; parasites in culture, 48 h, pooled, mean ± SD (n = 3) (Table 3), read-out: IC50 T. gondii): 460 ± 140 nM
CC50 at 48 h [3]: > 10000 nM

Molecule: Toxoplasma gondii importin α (TgIMPα), biotinylated GST fusion protein (natural protein)
Kd [1]: 3.5 nM

Molecule: Plasmodium falciparum importin α (PfIMPα), biotinylated GST fusion protein (natural protein)
Kd [4]: 6.5 nM
